# Patent US20090253794A1, “Fibroblast Activator, Collagen Production Promoter, Collagen Contraction Promoter, Hyaluronic Acid Production Promoter, ATP Production Promoter, Melanin Formation Inhibitor, and Agent for External Application to the Skin” (priority 2005, published 2009)
# “Also recorded” adds a separate entry of the source.
# Tests used:
# human normal melanocytes = assay: melanin formation suppression test in human melanocytes (L-DOPA, absorbance 495 nm); type: cell-based; conditions: 5 days, relative value, without addition of sample = 100
# Procedure: A melanin formation suppression test was performed using human melanocytes (manufactured by KURABO INDUSTRIES LTD.). That is, human normal melanocytes amplified in Medium 254 medium (human melanocyte medium added with HMGS, manufactured by KURABO INDUSTRIES LTD.) was added to a 96 well plate at 10^4 cells per well, and cultured in a carbon dioxide incubator adjusted to 5% (v/v) carbon dioxide gas at 37° C. for about 24 hr. Then, pure water or a sample (conagenin) dissolved in pure water was added thereto to a final concentration of 0.1 mM, 1.0 mM or 10 mM. As a positive control, kojic acid (manufactured by Sigma Ltd.) was added to the same concentration. The cells were cultured for 5 more days under the same conditions. To the recovered cells was added 50 μl of cell suspension (PBS buffer containing Triton X-100 at 0.1% (v/v)). After thorough suspending, the suspension was stood at 4° C. for 1 hr. Thereto was added 50 μl of 10 mM L-DOPA (manufactured by Nacalai Tesque), and the mixture was incubated at 37° C. for 1 hr. Thereafter, the absorbance at 495 nm was measured by a plate reader (multiscanplus MKII, manufactured by Japan Flow Laboratory), and the melanin formation amount was measured (shown in a relative value to the value without addition of sample as 100).
# B16 melanoma cells = assay: melanin formation suppression test, visual whitening and cell mass volume; type: cell-based, mouse; set-up: key to level of whitening: whitening high→++; whitening moderate→+; somewhat whitened→+−; no whitening→−; conditions: 5 days; for level of whitening: visual evaluation; for change in cell mass volume: visual, cytotoxicity index
# Procedure: A melanin formation suppression test was performed as follows using mouse melanoma cells. First, 2×10^4 B16 melanoma cells were plated in a 35 mm diameter dish containing Eagle's minimum nutrition medium (3 ml) supplemented with 10% (v/v) fetal bovine serum, and cultured in a carbon dioxide incubator adjusted to 5% (v/v) carbon dioxide gas at 37° C. for about 24 hr. Then, pure water or a sample dissolved in pure water was added thereto to a final concentration of 0.1 mM, 1.0 mM or 10 mM. As a positive control, kojic acid (manufactured by Sigma Ltd.) was added to the same concentration. The cells were cultured for 5 more days under the same conditions, treated with trypsin, and centrifuged to collect the cells in a 1.5 ml Eppendorf. The level of whitening of the cells was visually evaluated, and indicated: whitening high→++; whitening moderate→+; somewhat whitened→+−; no whitening→−. Simultaneously, changes in the cell mass volume was visually evaluated and used as a cytotoxicity index.
smiles,measurement,setting,value
"O=c1cc(CO)occ1O [kojic acid, reference compound]",melanin formation amount,human normal melanocytes; 100 μM,105
same,melanin formation amount,human normal melanocytes; 1 mM,88
same,level of whitening,B16 melanoma cells; 0.1 mM,+−
same,change in cell mass volume,B16 melanoma cells; 0.1 mM,none
same,level of whitening,B16 melanoma cells; 1 mM,+
same,change in cell mass volume,B16 melanoma cells; 1 mM,none
same,change in cell mass volume,B16 melanoma cells; 10 mM,cell death occurred; also recorded: yes (cell death)
